Experimental data as given in publication PMC9316313, “Biochemical Properties of Atranorin-Induced Behavioral and Systematic Changes of Laboratory Rats” (Life, 2022).

Target: T1, human serum albumin (HSA) (Homo sapiens, UniProt P02768)
T1 construct: gene ALB; Albumin from human serum (A1887, Sigma Aldrich)
Experiment: intrinsic fluorescence quenching (Stern-Volmer, binding constant KB), synchronous and 3D fluorescence
Settings: read-out: intrinsic fluorescence quenching (Stern-Volmer, binding constant KB), synchronou (converted)

T1 sequence (P02768 25-609): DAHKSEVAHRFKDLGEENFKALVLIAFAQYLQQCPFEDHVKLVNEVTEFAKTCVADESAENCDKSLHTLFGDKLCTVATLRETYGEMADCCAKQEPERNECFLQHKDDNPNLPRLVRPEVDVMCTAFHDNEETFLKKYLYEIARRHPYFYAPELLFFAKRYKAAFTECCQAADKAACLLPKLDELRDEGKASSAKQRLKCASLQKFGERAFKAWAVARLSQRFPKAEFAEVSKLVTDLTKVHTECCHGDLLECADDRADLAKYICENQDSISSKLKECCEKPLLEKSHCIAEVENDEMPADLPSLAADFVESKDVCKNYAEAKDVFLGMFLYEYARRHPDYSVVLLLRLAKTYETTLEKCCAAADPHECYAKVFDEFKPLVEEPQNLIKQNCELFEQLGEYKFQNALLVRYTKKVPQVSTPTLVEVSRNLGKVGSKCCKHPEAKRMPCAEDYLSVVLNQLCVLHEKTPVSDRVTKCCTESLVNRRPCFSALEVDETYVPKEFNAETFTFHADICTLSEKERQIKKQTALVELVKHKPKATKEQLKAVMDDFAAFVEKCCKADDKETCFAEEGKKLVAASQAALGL

**Q.** For `COC(=O)c1c(C)cc(OC(=O)c2c(C)cc(O)c(C=O)c2O)c(C)c1O` [ATR, Atranorin], which Kd is on record?
**A.** 235 nM
